Reference: US10501516B2, “Peptide compound” (TAKEDA PHARMACEUTICAL COMPANY LIMITED, priority 2016, dated 2019)
Square brackets hold non-standard residues; d marks the D form. Side chains are listed from the residue outwards. Peptide text beside a SMILES is read from it. * marks the point of attachment. C18 diacid = O=C(O)CCCCCCCCCCCCCCCCC(=O)*; NMeY = CN[C@@H](Cc1ccc(O)cc1)C(=O)O; Palmitoyl = CCCCCCCCCCCCCCCC(=O)*; αMeF = C[C@](N)(Cc1ccccc1)C(=O)O; Iva = CC[C@](C)(N)C(=O)O; Aib = CC(C)(N)C(=O)O

Columns and labels:
[1] = target: T1, human GIPR (Homo sapiens, UniProt P48546); experiment: Reporter assay of human GIPR gene (agonist activity, intracellular cAMP as index); type: cell-based; details: Cre-luc reporter, hGIPR/CHO-K1 cells, 4 hours
T1 construct: expressed in transfected cells; host or cells: CHO-K1 Cre-luc reporter cells (hGIPR/CHO-K1, also called hGIPR/CRE-LUC/CHO-K1)
T1 sequence (P48546 22-466): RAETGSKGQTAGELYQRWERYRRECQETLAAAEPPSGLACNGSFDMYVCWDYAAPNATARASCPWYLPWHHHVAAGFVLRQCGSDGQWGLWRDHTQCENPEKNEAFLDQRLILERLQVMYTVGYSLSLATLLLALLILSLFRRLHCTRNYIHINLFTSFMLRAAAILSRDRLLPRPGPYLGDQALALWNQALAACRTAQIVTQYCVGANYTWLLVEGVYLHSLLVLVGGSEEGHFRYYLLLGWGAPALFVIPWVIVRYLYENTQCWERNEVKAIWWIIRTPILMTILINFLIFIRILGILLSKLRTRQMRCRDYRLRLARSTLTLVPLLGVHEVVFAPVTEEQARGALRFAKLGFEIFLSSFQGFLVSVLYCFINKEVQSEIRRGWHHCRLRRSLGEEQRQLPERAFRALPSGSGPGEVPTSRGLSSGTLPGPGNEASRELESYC
From the text: (§1) Evaluation of Agonist Activity Against Human NPY2R, Human GIPR, and Human GLP-1R Using Change in Intracellular cAMP Concentration as Index
The human GIPR gene having a sequence identical to the sequence of GenBank Accession No. U39231 was cloned into pMSRα-neo vector to prepare hGIPR/pMSRα-neo. This vector was introduced to the Cre-luc reporter cells obtained in (1) to obtain transformants. Next, a cell line induced to express luciferase, i.e., hGIPR/CHO-K1 cells, were selected from the obtained transformants by the addition of GIP.
The hGIPR/CRE-LUC/CHO-K1 cells or the hGLP-1R/Crel cells were inoculated at a cell density of 25 μL/well (5,000 cells/well) to a 384-well white plate (Corning, 3570), and cultured overnight in Ham F12 medium containing 10% fetal bovine serum, 100 U/mL penicillin and 100 μg/mL streptomycin in a CO2 incubator of 37° C. On the next day, a medium containing a test compound was added at a concentration of 5 μL/well to the cells, and the resultant cells were incubated for 4 hours in a CO2 incubator of 37° C. to give the final concentration of 1 μM. SteadyGlo (Promega) was added thereto at a concentration of 30 μL/well, and the mixture was shaken with light shielded. After 30 minutes, the luciferase activity was measured using a plate reader Envision (PerkinElmer). For the GIPR agonist activity, the luciferase activity in the presence of 10 μM GIP was defined as 100%, and the luciferase activity from the addition of DMSO instead of the test compound was defined as 0%. The GIPR agonist activity was calculated with a rise in intracellular cAMP concentration as an index.

[2] = target: T2, human NPY2R (Homo sapiens, UniProt P49146); experiment: Reporter assay of human NPY2R gene (agonist activity, decrease in intracellular cAMP as index); type: cell-based; details: Cre-luc reporter, hNPY2R CHO-K1 cells, forskolin 1.2 μM, 4 hours; read-out: Agonist activity (EC50) hY2R
T2 construct: expressed in transfected cells; host or cells: CHO-K1 Cre-luc reporter cells (pAKKO1114/hNPY2R#481 No. 88 cells)
T2 sequence (P49146 1-381): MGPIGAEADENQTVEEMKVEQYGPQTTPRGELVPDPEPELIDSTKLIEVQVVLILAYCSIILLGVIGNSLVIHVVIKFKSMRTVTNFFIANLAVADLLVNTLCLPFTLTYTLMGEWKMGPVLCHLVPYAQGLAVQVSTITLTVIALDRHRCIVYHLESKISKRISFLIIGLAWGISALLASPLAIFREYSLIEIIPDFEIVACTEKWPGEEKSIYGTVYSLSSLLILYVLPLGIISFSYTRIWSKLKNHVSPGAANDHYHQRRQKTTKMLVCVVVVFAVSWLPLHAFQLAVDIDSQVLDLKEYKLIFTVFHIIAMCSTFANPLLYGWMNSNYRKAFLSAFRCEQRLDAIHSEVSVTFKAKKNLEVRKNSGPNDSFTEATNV
From the text: as §1
The human NPY2R gene having a sequence identical to the sequence of GenBank Accession No. AC104407 was cloned into pAKKO1114 vector to prepare hNPY2R/pAKKO1114. Next, pGL4.29 (Promega) was introduced to CHO-K1 cells, which were then screened with hygromycin to construct Cre-luc reporter cells. These cells were cotransfected with hNPY2R/pAKKO1114 and pcDNA3.1 (Life Technologies Corp.), and the cells were screened with geneticin. Next, a cell line induced to express luciferase, i.e., pAKKO1114/hNPY2R#481 No. 88 cells, were selected from the obtained transformants by the addition of human PYY (3-36).
The pAKKO1114/hNPY2R#481 No. 88 cells were inoculated at a cell density of 25 μL/well (5,000 cells/well) to a 384-well white plate (Corning, 3570), and cultured overnight in Ham F12 medium containing 10% fetal bovine serum, 100 U/mL penicillin and 100 μg/mL streptomycin in a CO2 incubator of 37° C. On the next day, the medium was removed, and an assay medium (Ham F12 medium containing 0.1% BSA, 100 U/mL penicillin and 100 μg/mL streptomycin) containing forskolin (final concentration: 1.2 μM) was added at a concentration of 25 μL/well to the cells. Next, an assay medium containing a test compound was added at a concentration of 5 μL/well to the cells, and the resultant cells were incubated for 4 hours in a CO2 incubator of 37° C. to give the final concentration of 1 μM. SteadyGlo (Promega) was added thereto at a concentration of 30 μL/well, and the mixture was left standing for 20 minutes with light shielded. The luciferase activity was measured using a plate reader Envision (PerkinElmer). The luciferase activity from the addition of DMSO was defined as 100%, and the luciferase activity from the addition of 1 μM human PYY(3-36) instead of the test compound was defined as 0%. The NPY2R agonist activity was calculated with a decrease in intracellular cAMP concentration as an index.

[3] = system: male C57BL/6J mouse; experiment: Evaluation of feeding suppressive action in mice; type: in vivo; details: 30 nmol/kg s.c. once a day for 3 days; 3-days cumulative food consumption vs solvent control
Method in brief: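 Male C57BL/6J mice, 8-9 weeks, ad libitum fed, given compound (30 or 100 nmol/2 mL in 10% DMSO saline) s.c. at 2 mL/kg once daily for 3 days. Cumulative 3-day food consumption measured by weighing; suppression rate (%) calculated relative to vehicle controls.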

## CCCCCCCCCCCCCCCC(=O)NCC(=O)NCC(=O)NCC(=O)NCC(=O)NCCCC[C@H](NC(=O)[C@H](CC(=O)O)NC(=O)[C@H](CO)NC(=O)[C@@H](NC(=O)[C@](C)(Cc1ccccc1)NC(=O)[C@@H](NC(=O)CNC(=O)[C@H](CCC(=O)O)NC(=O)C(C)(C)NC(=O)[C@@H](N)Cc1ccc(O)cc1)[C@@H](C)O)[C@@H](C)O)C(=O)NC(C)(C)C(=O)N[C@H](C(=O)NC(C)(C)C(=O)N[C@@H](CC(C)C)C(=O)N[C@@H](CC(=O)O)C(=O)N[C@@H](CCCCN)C(=O)N[C@@H](CCC(N)=O)C(=O)N[C@@H](CCCNC(=N)N)C(=O)N[C@@H](CCC(N)=O)C(=O)N[C@@](C)(CC)C(=O)N[C@@H](CCC(=O)O)C(=O)N[C@@H](Cc1ccccc1)C(=O)N[C@H](C(=O)N[C@@H](CCCNC(=N)N)C(=O)N[C@@H](Cc1c[nH]cn1)C(=O)N[C@@H](CC(C)C)C(=O)N[C@@H](CC(C)C)C(=O)N[C@@H](CC(N)=O)C(=O)N[C@@H](CCCCN)C(=O)NC(C)(C)C(=O)N[C@H](C(=O)N[C@@H](CCCNC(=N)N)C(=O)N[C@@H](CCC(N)=O)C(=O)N[C@@H](CCCNC(=N)N)C(=O)N[C@@H](Cc1ccc(O)cc1)C(N)=O)[C@@H](C)O)C(C)C)[C@@H](C)CC [Example 7] (H-Y[Aib]EGT[αMeF]TSDK([Gly-Gly-Gly-Gly-Palmitoyl])[Aib]I[Aib]LDKQRQ[Iva]EFVRHLLNK[Aib]TRQRY-NH2)
[1]
  EC50: 0.068 nM
[2]
  EC50: 0.1 nM
[3]
  Rate of feeding suppression (%): −37.6%

## CCCCCCCCCCCCCCCC(=O)NCC(=O)NCC(=O)NCC(=O)NCC(=O)NCCCC[C@H](NC(=O)[C@H](CC(=O)O)NC(=O)[C@H](CO)NC(=O)[C@@H](NC(=O)[C@](C)(Cc1ccccc1)NC(=O)[C@@H](NC(=O)CNC(=O)[C@H](CCC(=O)O)NC(=O)C(C)(C)NC(=O)[C@H](Cc1ccc(O)cc1)NC)[C@@H](C)O)[C@@H](C)O)C(=O)NC(C)(C)C(=O)N[C@H](C(=O)NC(C)(C)C(=O)N[C@@H](CC(C)C)C(=O)N[C@@H](CC(=O)O)C(=O)N[C@@H](CCCCN)C(=O)N[C@@H](CCC(N)=O)C(=O)N[C@@H](CCCNC(=N)N)C(=O)N[C@@H](CCC(N)=O)C(=O)N[C@@](C)(CC)C(=O)N[C@@H](CCC(=O)O)C(=O)N[C@@H](Cc1ccccc1)C(=O)N[C@H](C(=O)N[C@@H](CCCNC(=N)N)C(=O)N[C@@H](Cc1c[nH]cn1)C(=O)N[C@@H](CC(C)C)C(=O)N[C@@H](CC(C)C)C(=O)N[C@@H](CC(N)=O)C(=O)N[C@@H](CCCCN)C(=O)NC(C)(C)C(=O)N[C@H](C(=O)N[C@@H](CCCNC(=N)N)C(=O)N[C@@H](CCC(N)=O)C(=O)N[C@@H](CCCNC(=N)N)C(=O)N[C@@H](Cc1ccc(O)cc1)C(N)=O)[C@@H](C)O)C(C)C)[C@@H](C)CC [Example 9] (H-[NMeY][Aib]EGT[αMeF]TSDK([Gly-Gly-Gly-Gly-Palmitoyl])[Aib]I[Aib]LDKQRQ[Iva]EFVRHLLNK[Aib]TRQRY-NH2)
[1]
  EC50: 0.068 nM
[2]
  EC50: 0.1 nM

## CC[C@H](C)[C@H](NC(=O)C(C)(C)NC(=O)[C@H](CCCCNC(=O)CNC(=O)CNC(=O)CNC(=O)CNC(=O)CCCCCCCCCCCCCCCCC(=O)O)NC(=O)[C@H](CC(=O)O)NC(=O)[C@H](CO)NC(=O)[C@@H](NC(=O)[C@](C)(Cc1ccccc1)NC(=O)[C@@H](NC(=O)CNC(=O)[C@H](CCC(=O)O)NC(=O)C(C)(C)NC(=O)[C@@H](N)Cc1ccc(O)cc1)[C@@H](C)O)[C@@H](C)O)C(=O)NC(C)(C)C(=O)N[C@@H](CC(C)C)C(=O)N[C@@H](CC(=O)O)C(=O)N[C@@H](CCCCN)C(=O)N[C@@H](CCC(N)=O)C(=O)N[C@@H](C)C(=O)N[C@@H](CCC(N)=O)C(=O)N[C@@](C)(CC)C(=O)N[C@@H](CCC(=O)O)C(=O)N[C@@H](Cc1ccccc1)C(=O)N[C@H](C(=O)N[C@@H](CCCNC(=N)N)C(=O)N[C@@H](Cc1c[nH]cn1)C(=O)N[C@@H](CC(C)C)C(=O)N[C@@H](CC(C)C)C(=O)N[C@@H](CC(N)=O)C(=O)N[C@@H](CCCCN)C(=O)NC(C)(C)C(=O)N[C@H](C(=O)N[C@@H](CCCNC(=N)N)C(=O)N[C@@H](CCC(N)=O)C(=O)N[C@@H](CCCNC(=N)N)C(=O)N[C@@H](Cc1ccc(O)cc1)C(N)=O)[C@@H](C)O)C(C)C [Example 28] (H-Y[Aib]EGT[αMeF]TSDK([Gly-Gly-Gly-Gly-C18 diacid])[Aib]I[Aib]LDKQAQ[Iva]EFVRHLLNK[Aib]TRQRY-NH2)
[1]
  EC50: 0.074 nM
[2]
  EC50: 2.4 nM

## CCCCCCCCCCCCCCCC(=O)NCC(=O)NCC(=O)NCC(=O)NCC(=O)NCCCC[C@H](NC(=O)[C@H](CC(=O)O)NC(=O)[C@H](CO)NC(=O)[C@@H](NC(=O)[C@](C)(Cc1ccccc1)NC(=O)[C@@H](NC(=O)CNC(=O)[C@H](CCC(=O)O)NC(=O)C(C)(C)NC(=O)[C@H](Cc1ccc(O)cc1)NC)[C@@H](C)O)[C@@H](C)O)C(=O)N[C@@H](C)C(=O)N[C@H](C(=O)NC(C)(C)C(=O)N[C@@H](CC(C)C)C(=O)N[C@@H](CC(=O)O)C(=O)N[C@@H](CCCCN)C(=O)N[C@@H](CCC(N)=O)C(=O)N[C@@H](CCCNC(=N)N)C(=O)N[C@@H](CCC(N)=O)C(=O)N[C@@](C)(CC)C(=O)N[C@@H](CCC(=O)O)C(=O)N[C@@H](Cc1ccccc1)C(=O)N[C@H](C(=O)N[C@@H](CCCNC(=N)N)C(=O)N[C@@H](Cc1c[nH]cn1)C(=O)N[C@@H](CC(C)C)C(=O)N[C@@H](CC(C)C)C(=O)N[C@@H](CC(N)=O)C(=O)N[C@@H](CCCCN)C(=O)NC(C)(C)C(=O)N[C@H](C(=O)N[C@@H](CCCNC(=N)N)C(=O)N[C@@H](CCC(N)=O)C(=O)N[C@@H](CCCNC(=N)N)C(=O)N[C@@H](Cc1ccc(O)cc1)C(N)=O)[C@@H](C)O)C(C)C)[C@@H](C)CC [Example 13] (H-[NMeY][Aib]EGT[αMeF]TSDK([Gly-Gly-Gly-Gly-Palmitoyl])AI[Aib]LDKQRQ[Iva]EFVRHLLNK[Aib]TRQRY-NH2)
[1]
  EC50: 0.074 nM
[2]
  EC50: 0.1 nM
[3]
  Rate of feeding suppression (%): −41.0%
